Measured values taken from patent US12503452B2 (Curza Global, LLC, priority 2019, dated 2025).
Where a name gives a salt, the structure may show the parent alone. Read-outs that look alike come from different tables or passages of the source.

Columns and labels:
[1] = tested on: E. coli S30 extract (bacterial protein synthesis); test: E. coli S30 extract coupled transcription-translation luciferase assay (inhibition of bacterial protein synthesis); type: biochemical; conditions: read-out: S30 IC50 (μM/% inhib.)
Procedure, shortened: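 Luminescent read-out of luciferase made from pBESTluc DNA by E. coli S30 extract after 1 h at 37 °C with compound in an 8-point 2-fold series. Background came from no-DNA reactions. Percent inhibition was calculated against water-only controls.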

P. aeruginosa (Pa) = test: Broth microdilution minimum inhibitory concentration (MIC); type: cell-based; conditions: Pseudomonas aeruginosa, read-out: Pa MIC + bicarb
Procedure, shortened: (§1)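 MICs were run in triplicate per CLSI microdilution (modified, 8 dilution steps), inoculating 5×10^4 CFU/well prepared from colonies grown at 35±2° C to 0.5 McFarland. Media: CAMHB alone, with 6.25 or 25 mM final sodium bicarbonate, or with 0–50% heat-inactivated human serum.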

E. faecalis (Ef) = test: as above; type: cell-based; conditions: Enterococcus faecalis, read-out: Ef + bicarb MIC
Procedure, shortened: as §1

E. coli (Ec) = test: as above; type: cell-based; conditions: Escherichia coli, read-out: E. coli + bicarb MIC
Procedure, shortened: as §1

A. baumannii (Ab) = test: as above; type: cell-based; conditions: Acinetobacter baumannii, read-out: Ab + bicarb MIC
Procedure, shortened: as §1

S. aureus (Sa) = test: as above; type: cell-based; conditions: Staphylococcus aureus, read-out: Sa + bicarb MIC
Procedure, shortened: as §1

[2] = target: Rabbit Reticulocyte Lysate (eukaryotic protein synthesis); test: Rabbit reticulocyte lysate luciferase assay (inhibition of eukaryotic protein synthesis); type: biochemical; conditions: read-out: Rabbit reticulocyte IC50 (μM/% inhib.)
Procedure, shortened: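 Compounds were tested in 8-point 2-fold dilution series for blocking luciferase synthesis in nuclease-treated rabbit reticulocyte lysate (30° C., 90 minutes). Luminescence read-out, corrected by no-RNA background, was expressed as % inhibition against water-only reactions.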

[3] = class by IC50 or % inhibition @ 1 μM
[4] = P. aeruginosa, growth medium supplemented with sodium bicarbonate
[5] = E. faecalis, growth medium supplemented with sodium bicarbonate
[6] = E. coli, growth medium supplemented with sodium bicarbonate
[7] = A. baumannii, growth medium supplemented with sodium bicarbonate
[8] = S. aureus, growth medium supplemented with sodium bicarbonate
[9] = P. aeruginosa, growth medium with sodium bicarbonate
[10] = E. faecalis, growth medium with sodium bicarbonate
[11] = E. coli, growth medium with sodium bicarbonate
[12] = A. baumannii, growth medium with sodium bicarbonate
[13] = S. aureus, growth medium with sodium bicarbonate

| Compound | IC50 [1, 3] [µM] | MIC (P. aeruginosa (Pa)) [µg/mL] | MIC (E. faecalis (Ef)) [µg/mL] | MIC (E. coli (Ec)) [µg/mL] | MIC (A. baumannii (Ab)) [µg/mL] | MIC (S. aureus (Sa)) [µg/mL] | IC50 [2, 3] [µM] | MIC (P. aeruginosa (Pa); [4]) [µg/mL] | MIC (E. faecalis (Ef); [5]) [µg/mL] | MIC (E. coli (Ec); [6]) [µg/mL] | MIC (A. baumannii (Ab); [7]) [µg/mL] | MIC (S. aureus (Sa); [8]) [µg/mL] | MIC (P. aeruginosa (Pa); [9]) [µg/mL] | MIC (E. faecalis (Ef); [10]) [µg/mL] | MIC (E. coli (Ec); [11]) [µg/mL] | MIC (A. baumannii (Ab); [12]) [µg/mL] | MIC (S. aureus (Sa); [13]) [µg/mL] | IC50 ([1]; % inhibition @ 1 μM) [µM] | IC50 ([2]; % inhibition @ 1 μM) [µM] |
| --- | --- | --- | --- | --- | --- | --- | --- | --- | --- | --- | --- | --- | --- | --- | --- | --- | --- | --- | --- |
| CC(C)(N)C(=O)N1CCN(C(=O)Nc2ccn(-c3ccc(CNC4CC(N)CC(O)C4)cc3)c(=O)n2)CC1 (stereo not shown) [Compound 342, hydrochloride salt] | < 0.5 | > 32 | > 32 | 8 to 32 | > 32 | > 32 | > 1 |  |  |  |  |  |  |  |  |  |  |  |  |
| CN(Cc1ccc(-n2ccc(NC(=O)N3CCN(C(=O)C(C)(C)N)CC3)nc2=O)cc1)C1CC(N)CC(O)C1 (stereo not shown) [Compound 343, hydrochloride salt] | 0.5 to 1 | > 32 | > 32 | 8 to 32 | > 32 | > 32 | > 1 |  |  |  |  |  |  |  |  |  |  |  |  |
| CC(C)(N)C(=O)N1CCN(C(=O)Nc2ccn(-c3ccc(CNCC4CNC4)cc3)c(=O)n2)CC1 [Compound 112] | < 0.5 |  |  |  |  |  | > 1 | > 32 | > 32 | 8 to 32 | > 32 | 8 to 32 |  |  |  |  |  |  |  |
| CC(Cc1ccc(-n2ccc(NC(=O)N3CCN(C(=O)C(C)(C)N)CC3)nc2=O)cc1)NC[C@H]1C[C@H](N)C1 (stereo partly shown) [Compound 156] | < 0.5 |  |  |  |  |  | > 1 | > 32 | 8 to 32 | < 8 | > 32 | < 8 |  |  |  |  |  |  |  |
| CCN(C[C@H]1CCC[C@H](N)C1)C(C)Cc1ccc(-n2ccc(NC(=O)N3CCN(C(=O)C(C)(C)N)CC3)nc2=O)cc1 (stereo partly shown) [Compound 280] | 0.5 to 1 |  |  |  |  |  | > 1 |  |  |  |  |  | > 32 | < 8 | < 8 | > 32 | < 8 |  |  |
| CC1CN(Cc2ccc(-n3ccc(NC(=O)N4CCN(C(=O)C(C)(C)N)CC4)nc3=O)cc2)CCC1N (stereo not shown) [Compound 251] | < 0.5 |  |  |  |  |  | > 1 |  |  |  |  |  | > 32 | < 8 | < 8 | > 32 | < 8 |  |  |
| CC(C)(N)C(=O)N1CCN(C(=O)Nc2ccn(-c3ccc(CCN4CCCC(N)CC4)cc3)c(=O)n2)CC1 (stereo not shown) [Compound 21] | < 0.5 |  |  |  |  |  | > 1 | 8 to 32 | < 8 | < 8 | > 32 | < 8 |  |  |  |  |  |  |  |
| CC(CN1CC[C@H](CN)C1)Oc1ccc(-n2ccc(NC(=O)N3CCN(C(=O)C(C)(C)N)CC3)nc2=O)cc1 (stereo partly shown) [Compound 184] | < 0.5 |  |  |  |  |  | > 1 |  |  |  |  |  | > 32 | 8 to 32 | < 8 | > 32 | < 8 |  |  |
| CC(C)(N)C(=O)N1CCN(C(=O)Nc2ccn(-c3ccc(CCN4CCCC(NC5CC5)CC4)cc3)c(=O)n2)CC1 (stereo not shown) [Compound 29] | > 1 |  |  |  |  |  | > 1 | > 32 | > 32 | < 8 | > 32 | 8 to 32 |  |  |  |  |  |  |  |
| CCN(Cc1ccc(-n2ccc(NC(=O)N3CCN(C(=O)C4(N)CCC4)CC3)nc2=O)cc1)C1CCC(N)CC1 (stereo not shown) [Compound 315, hydrochloride salt] | > 1 | > 32 | > 32 | 8 to 32 | > 32 | 8 to 32 | > 1 |  |  |  |  |  |  |  |  |  |  |  |  |
| CC(C)(N)C(=O)N1CCN(C(=O)Nc2ccn(-c3ccc(CN4CCCC(N)CC4)cc3)c(=O)n2)CC1 (stereo not shown) [Compound 365, hydrochloride salt] |  | > 32 | < 8 | < 8 | > 32 | < 8 |  |  |  |  |  |  |  |  |  |  |  | < 0.5 | > 1 |
| C[C@@H](N)C1CCN(Cc2ccc(-n3ccc(NC(=O)N4CCN(C(=O)C(C)(C)N)CC4)nc3=O)cc2)CC1 [Compound 219] | 0.5 to 1 |  |  |  |  |  | > 1 |  |  |  |  |  | > 32 | 8 to 32 | < 8 | > 32 | < 8 |  |  |
| CC(Cc1ccc(-n2ccc(NC(=O)N3CCN(C(=O)C(C)(C)N)CC3)nc2=O)cc1)N[C@H]1CC[C@@H](N)CC1 (stereo partly shown) [Compound 174] | < 0.5 |  |  |  |  |  | > 1 |  |  |  |  |  | > 32 | < 8 | < 8 | 8 to 32 | < 8 |  |  |
